Assay results published in US6815398B1, “Substituted phenyluracils and their use as herbicides” (Bayer Aktiengesellschaft, priority 1999, dated 2004).

Structure (SMILES)	melting point [°C]
COc1ccc(Oc2cc(-n3c(=O)cc(C(F)(F)F)[nH]c3=O)c(F)cc2C#N)cc1 [Example 1, 4-(3,6-dihydro-2,6-dioxo-4-trifluoromethyl-1(2H)-pyrimidin-1-yl)-5-fluoro-2-(4-methoxy-phenoxy)-benzonitrile]	84
COc1ccc(Oc2cc(-n3c(=O)cc(C(F)(F)F)n(C)c3=O)c(F)cc2C#N)cc1 [Example 2, 4-(3,6-dihydro-2,6-dioxo-3-methyl-4-trifluoro-methyl-1(2H)-pyrimidin-1-yl)-5-fluoro-2-(4-methoxy-phenoxy)-benzonitrile]	62
